The results in this text go back to patent publication US12533373B2, “β-glucan composition and use therefor” (Qingdao Conson Pharmaceutical Co., Ltd., priority 2019, dated 2026).

“And” between values parts separate entries of the source, which are not always exact repeats. Equal entries are not always repeated.

Assay [1] deals with S180 mouse fibrosarcoma cells. The experiment in a line: murine S180 sarcoma residual carcinoma model. It counts as in vivo, Kunming mice. The conditions noted are these: 5-FU 18 mg/kg. The method, then: S180 mouse fibrosarcoma cells were amplified by culturing in DMEM high sugar medium containing 10% FBS. The cells were ready for the next step when entering the logarithmic growth phase. The cells at logarithmic growth phase were collected by centrifugation and counted. The cell concentration was adjusted, and inoculated at 0.2 ml/mouse into the peritoneal cavity of Kunming mice as the first-generation breeder mouse. After rearing for one week, the ascites in peritoneal cavity of the first-generation breeder mouse were taken for centrifugation and count, the cell concentration was adjusted, and inoculated at 0.2 ml/mouse into the peritoneal cavity of Kunming mice as the second-generation breeder mouse, and after rearing for another week, the ascites in peritoneal cavity of the second-generation breeder mouse were taken for centrifugation and count, the cell concentration was adjusted, and inoculated at 0.2 ml/mouse into subcutaneous back of Kunming mice. The whole inoculation process was carried out aseptically in the ultra-clean workstation. After inoculation, the growth of mice was observed, and the mice were screened according to their growth state, and after screening, the mice were grouped randomly and administered.

In assay [2] the test system is SW-480 human colon cancer transplanted tumors. The experiment in a line: nude mice transplanted tumor model, SW-480. The class given is in vivo, BALB/c nude mice. The note with it: 5-FU 18 mg/kg, tail vein, twice a week. The method, then: The […] was resuscitated with liquid nitrogen and cultured in 5A medium containing 10% fetal bovine serum; the cells were expanded and cultured in culture flasks and collected by digestion after reaching the required cells number; the cells were diluted using 5A medium containing 10% fetal bovine serum into suspensions of 250 million cell/ml which was inoculated subcutaneously to the axilla of the right forelimb of each mouse with 0.2 ml per mouse after routine sterilization. When growing to tumors to about 1 g of tissue mass, the animal was sacrificed and the tumor was cut into 2-3 cubic millimeter pieces and implanted subcutaneously into nude mice for passaging by catheter method, and two consecutive passages were performed. HT-29, SW-480, DLD-1 and RKO cell lines listed in the table were modeled and experimented using the same method. Waiting for the tumors of the passaged tumor-bearing nude mice grown to about 1 g, the tumors were transplanted for modeling via the method described above, and the animals were randomly grouped and administration was started on the next day after transplantation.
The animals were grouped using the random grouping method, 8 animals each group.
The route of administration is via tail vein injection, and the amount of administration for each animal was determined based on the latest body weight prior to administration. […]

The test system of assay [3] is Mouse lung cancer Lewis cells. Kind of assay: mouse Lewis lung cancer residual cancer model. It counts as in vivo, C57BL/6 mice. The conditions noted are these: 5-FU 18 mg/kg. How it is done: Mouse lung cancer Lewis cells were amplified by culturing in DMEM high sugar medium containing 10% FBS. The cells were ready for the next step when entering the logarithmic growth phase. The cells at logarithmic growth phase were collected by centrifugation and counted. The cell concentration was adjusted and inoculated subcutaneously at 0.2 ml/mouse in the right axilla of C57BL/6 mice as breeder mouse. After grew to over 1000 mm^3, the tumors were removed aseptically, weighed, diluted by adding sodium chloride injection with mass to volume ratio of 1:4 and […], after conventional sterilization, inoculated subcutaneously to the axilla of the right forelimb of each mouse with 0.2 ml per mouse for passaging. After grew to over 1000 mm^3, the second generation tumors were taken aseptically, weighed, diluted by adding sodium chloride injection with mass to volume ratio of 1:4 and ground, and then inoculated subcutaneously to the back of mice at 0.2 ml per mouse after routine sterilization. The growths of mice were observed after inoculation, and screened according to the growth state of mice, and after screening, the mice were grouped randomly and administered.

In the case of `O=c1[nH]cc(F)c(=O)[nH]1` [Example 5-FU, Fluorouracil], the Inhibition rate is 85.30% and 66.85% in assay [1]; 57.91% in assay [2]. Also, the Tumor weight is 0.43 g in assay [2]; 1.29 g and 1.24 g in assay [3].
